Entries after “also recorded” stand apart in the source; their conditions may differ. Read-outs that look alike come from different tables or passages of the source.
Test system: MRSA
Assay: Potentiating effect of galloyl quinic acid derivatives for the antibacterial activity of oxacillin (agar plate dilution method, MIC)
Type: cell-based, Staphylococcus aureus
Procedure: According to the agar plate dilution method defined by Japan Society of Chemotherapy, MIC (Minimum inhibitory concentration) was determined. CAMHA was prepared by adding 50 mg/l of Ca-ion, 25 mg/l of Mg-ion, and 2% of NaCl to Mueller-Hinton II Agar (MHA), and it was used as a medium for use in the measurement of sensitivity. The bacterial liquid was incubated at 37° C. overnight and diluted to 10^6 CFU/ml with saline.
It was confirmed that the known substances shown below were contained in “Tara” and their MICs were determined as described in example 2 with respect to the effects of the combination use with oxacillin

[1] = ATCC 6538, with 12.5 μg/ml of compound
[2] = ATCC 6538, with 25 μg/ml of compound
[3] = ATCC 6538, with 50 μg/ml of compound
[4] = MRSA 1, with 12.5 μg/ml of compound
[5] = MRSA 1, with 25 μg/ml of compound
[6] = MRSA 1, with 50 μg/ml of compound
[7] = MRSA 2, with 12.5 μg/ml of compound
[8] = MRSA 2, with 25 μg/ml of compound
[9] = MRSA 2, with 50 μg/ml of compound
[10] = MRSA 3, with 12.5 μg/ml of compound
[11] = MRSA 3, with 25 μg/ml of compound
[12] = MRSA 3, with 50 μg/ml of compound
[13] = MRSA 4, with 12.5 μg/ml of compound
[14] = MRSA 4, with 25 μg/ml of compound
[15] = MRSA 4, with 50 μg/ml of compound
[16] = MRSA 5, with 12.5 μg/ml of compound
[17] = MRSA 5, with 25 μg/ml of compound
[18] = MRSA 5, with 50 μg/ml of compound
[19] = MRSA 6, with 12.5 μg/ml of compound
[20] = MRSA 6, with 25 μg/ml of compound
[21] = MRSA 6, with 50 μg/ml of compound
[22] = MRSA 7, with 12.5 μg/ml of compound
[23] = MRSA 7, with 25 μg/ml of compound
[24] = MRSA 7, with 50 μg/ml of compound
[25] = MRSA 8, with 12.5 μg/ml of compound
[26] = MRSA 8, with 25 μg/ml of compound
[27] = MRSA 8, with 50 μg/ml of compound
[28] = MRSA 9, with 12.5 μg/ml of compound
[29] = MRSA 9, with 25 μg/ml of compound
[30] = MRSA 9, with 50 μg/ml of compound
[31] = MRSA 10, with 12.5 μg/ml of compound
[32] = MRSA 10, with 25 μg/ml of compound
[33] = MRSA 10, with 50 μg/ml of compound
[34] = MRSA 12, with 12.5 μg/ml of compound
[35] = MRSA 12, with 25 μg/ml of compound
[36] = MRSA 12, with 50 μg/ml of compound
[37] = MRSA 16, with 12.5 μg/ml of compound
[38] = MRSA 16, with 25 μg/ml of compound
[39] = MRSA 16, with 50 μg/ml of compound
[40] = MRSA 17, with 12.5 μg/ml of compound
[41] = MRSA 17, with 25 μg/ml of compound
[42] = MRSA 17, with 50 μg/ml of compound
[43] = MRSA 18, with 12.5 μg/ml of compound
[44] = MRSA 18, with 25 μg/ml of compound
[45] = MRSA 18, with 50 μg/ml of compound
[46] = MRSA 20, with 12.5 μg/ml of compound
[47] = MRSA 20, with 25 μg/ml of compound
[48] = MRSA 20, with 50 μg/ml of compound
[49] = MRSA 21, with 12.5 μg/ml of compound
[50] = MRSA 21, with 25 μg/ml of compound
[51] = MRSA 21, with 50 μg/ml of compound
[52] = MRSA 22, with 12.5 μg/ml of compound
[53] = MRSA 22, with 25 μg/ml of compound
[54] = MRSA 22, with 50 μg/ml of compound
[55] = MRSA COL, with 12.5 μg/ml of compound
[56] = MRSA COL, with 25 μg/ml of compound
[57] = MRSA COL, with 50 μg/ml of compound
[58] = MSSA 1003, with 12.5 μg/ml of compound
[59] = MSSA 1003, with 25 μg/ml of compound
[60] = MSSA 1003, with 50 μg/ml of compound
[61] = MSSA 1010, with 12.5 μg/ml of compound
[62] = MSSA 1010, with 25 μg/ml of compound
[63] = MSSA 1010, with 50 μg/ml of compound
[64] = MSSA 1032, with 12.5 μg/ml of compound
[65] = MSSA 1032, with 25 μg/ml of compound
[66] = MSSA 1032, with 50 μg/ml of compound
[67] = RN4220, with 12.5 μg/ml of compound
[68] = RN4220, with 25 μg/ml of compound
[69] = RN4220, with 50 μg/ml of compound

COC(=O)C1(O)CC(OC(=O)c2cc(O)c(O)c(O)c2)C(OC(=O)c2cc(O)c(O)c(O)c2)C(OC(=O)c2cc(O)c(O)c(O)c2)C1 (stereo not shown) [compound 2]
Oxacillin MIC [1]: <0.5 µg/mL | Oxacillin MIC [2]: <0.5 µg/mL | Oxacillin MIC [3]: <0.5 µg/mL | Oxacillin MIC [4]: >256 µg/mL | Oxacillin MIC [5]: >256 µg/mL | Oxacillin MIC [6]: >256 µg/mL | Oxacillin MIC [7]: 256 µg/mL | Oxacillin MIC [8]: 32 µg/mL | Oxacillin MIC [9]: 32 µg/mL | Oxacillin MIC [10]: 64 µg/mL | Oxacillin MIC [11]: 32 µg/mL | Oxacillin MIC [12]: 32 µg/mL | Oxacillin MIC [13]: 256 µg/mL | Oxacillin MIC [14]: 256 µg/mL | Oxacillin MIC [15]: 256 µg/mL | Oxacillin MIC [16]: >256 µg/mL | Oxacillin MIC [17]: 256 µg/mL | Oxacillin MIC [18]: 256 µg/mL | Oxacillin MIC [19]: 128 µg/mL | Oxacillin MIC [20]: 32 µg/mL | Oxacillin MIC [21]: 64 µg/mL | Oxacillin MIC [22]: 256 µg/mL | Oxacillin MIC [23]: 128 µg/mL | Oxacillin MIC [24]: 64 µg/mL | Oxacillin MIC [25]: 64 µg/mL | Oxacillin MIC [26]: 64 µg/mL | Oxacillin MIC [27]: 64 µg/mL | Oxacillin MIC [28]: >256 µg/mL | Oxacillin MIC [29]: 256 µg/mL | Oxacillin MIC [30]: 128 µg/mL | Oxacillin MIC [31]: 64 µg/mL | Oxacillin MIC [32]: 64 µg/mL | Oxacillin MIC [33]: 64 µg/mL | Oxacillin MIC [34]: 256 µg/mL | Oxacillin MIC [35]: 128 µg/mL | Oxacillin MIC [36]: 256 µg/mL | Oxacillin MIC [37]: >255 µg/mL | Oxacillin MIC [38]: 256 µg/mL | Oxacillin MIC [39]: 256 µg/mL | Oxacillin MIC [40]: 128 µg/mL | Oxacillin MIC [41]: 256 µg/mL | Oxacillin MIC [42]: 256 µg/mL | Oxacillin MIC [43]: 256 µg/mL | Oxacillin MIC [44]: 128 µg/mL | Oxacillin MIC [45]: 128 µg/mL | Oxacillin MIC [46]: 8 µg/mL | Oxacillin MIC [47]: 2 µg/mL | Oxacillin MIC [48]: 4 µg/mL | Oxacillin MIC [49]: 32 µg/mL | Oxacillin MIC [50]: 8 µg/mL | Oxacillin MIC [51]: 16 µg/mL | Oxacillin MIC [52]: 32 µg/mL | Oxacillin MIC [53]: 16 µg/mL | Oxacillin MIC [54]: 32 µg/mL | Oxacillin MIC [55]: 256 µg/mL | Oxacillin MIC [56]: 128 µg/mL | Oxacillin MIC [57]: 128 µg/mL | Oxacillin MIC [58]: <0.5 µg/mL | Oxacillin MIC [59]: <0.5 µg/mL | Oxacillin MIC [60]: <0.5 µg/mL | Oxacillin MIC [61]: <0.5 µg/mL | Oxacillin MIC [62]: <0.5 µg/mL | Oxacillin MIC [63]: <0.5 µg/mL | Oxacillin MIC [64]: <0.5 µg/mL | Oxacillin MIC [65]: <0.5 µg/mL | Oxacillin MIC [66]: <0.5 µg/mL | Oxacillin MIC [67]: <0.5 µg/mL | Oxacillin MIC [68]: <0.5 µg/mL | Oxacillin MIC [69]: <0.5 µg/mL

COC(=O)C1(O)CC(O)C(OC(=O)c2cc(O)c(O)c(O)c2)C(OC(=O)c2cc(O)c(O)c(O)c2)C1 (stereo not shown) [Methyl 4,5-digalloylquinate, methyl 4,5-digalloylquinate]
effect of combination use with oxacillin (words): follows | effect of combination use with oxacillin (words) (listed as methyl 4,5-digalloylquinate): excellent

O=C(OC1CC(O)(C(=O)O)CC(O)C1OC(=O)c1cc(O)c(O)c(O)c1)c1cc(O)c(O)c(O)c1 (stereo not shown) [3,4-digalloylquinic acid]
effect of combination use with oxacillin (words): weak effects

O=C(OC1CC(O)(C(=O)O)CC(OC(=O)c2cc(O)c(O)c(O)c2)C1OC(=O)c1cc(O)c(O)c(O)c1)c1cc(O)c(O)c(O)c1 (stereo not shown) [compound 3]
Oxacillin MIC [1]: <0.5 µg/mL | Oxacillin MIC [2]: <0.5 µg/mL | Oxacillin MIC [3]: <0.5 µg/mL | Oxacillin MIC [4]: 128 µg/mL | Oxacillin MIC [5]: 32 µg/mL | Oxacillin MIC [6]: 64 µg/mL | Oxacillin MIC [7]: 2 µg/mL | Oxacillin MIC [8]: <0.5 µg/mL | Oxacillin MIC [9]: <0.5 µg/mL | Oxacillin MIC [10]: 4 µg/mL | Oxacillin MIC [11]: <0.5 µg/mL | Oxacillin MIC [12]: 1 µg/mL | Oxacillin MIC [13]: 32 µg/mL | Oxacillin MIC [14]: 4 µg/mL | Oxacillin MIC [15]: 2 µg/mL | Oxacillin MIC [16]: 64 µg/mL | Oxacillin MIC [17]: 8 µg/mL | Oxacillin MIC [18]: 8 µg/mL | Oxacillin MIC [19]: 4 µg/mL | Oxacillin MIC [20]: 2 µg/mL | Oxacillin MIC [21]: 4 µg/mL | Oxacillin MIC [22]: 16 µg/mL | Oxacillin MIC [23]: 4 µg/mL | Oxacillin MIC [24]: 2 µg/mL | Oxacillin MIC [25]: 8 µg/mL | Oxacillin MIC [26]: 4 µg/mL | Oxacillin MIC [27]: 8 µg/mL | Oxacillin MIC [28]: 8 µg/mL | Oxacillin MIC [29]: 2 µg/mL | Oxacillin MIC [30]: 2 µg/mL | Oxacillin MIC [31]: 4 µg/mL | Oxacillin MIC [32]: 2 µg/mL | Oxacillin MIC [33]: 4 µg/mL | Oxacillin MIC [34]: 8 µg/mL | Oxacillin MIC [35]: 4 µg/mL | Oxacillin MIC [36]: 4 µg/mL | Oxacillin MIC [37]: 32 µg/mL | Oxacillin MIC [38]: 8 µg/mL | Oxacillin MIC [39]: 8 µg/mL | Oxacillin MIC [40]: 4 µg/mL | Oxacillin MIC [41]: 8 µg/mL | Oxacillin MIC [42]: 4 µg/mL | Oxacillin MIC [43]: 32 µg/mL | Oxacillin MIC [44]: 4 µg/mL | Oxacillin MIC [45]: 4 µg/mL | Oxacillin MIC [46]: <0.5 µg/mL | Oxacillin MIC [47]: <0.5 µg/mL | Oxacillin MIC [48]: <0.5 µg/mL | Oxacillin MIC [49]: 1 µg/mL | Oxacillin MIC [50]: <0.5 µg/mL | Oxacillin MIC [51]: <0.5 µg/mL | Oxacillin MIC [52]: 1 µg/mL | Oxacillin MIC [53]: <0.5 µg/mL | Oxacillin MIC [54]: 1 µg/mL | Oxacillin MIC [55]: 8 µg/mL | Oxacillin MIC [56]: 4 µg/mL | Oxacillin MIC [57]: 4 µg/mL | Oxacillin MIC [58]: <0.5 µg/mL | Oxacillin MIC [59]: <0.5 µg/mL | Oxacillin MIC [60]: <0.5 µg/mL | Oxacillin MIC [61]: <0.5 µg/mL | Oxacillin MIC [62]: <0.5 µg/mL | Oxacillin MIC [63]: <0.5 µg/mL | Oxacillin MIC [64]: <0.5 µg/mL | Oxacillin MIC [65]: <0.5 µg/mL | Oxacillin MIC [66]: <0.5 µg/mL | Oxacillin MIC [67]: <0.5 µg/mL | Oxacillin MIC [68]: <0.5 µg/mL | Oxacillin MIC [69]: <0.5 µg/mL

O=C(OC1CC(O)(C(=O)O)CC(OC(=O)c2cc(O)c(O)c(O)c2)C1OC(=O)c1cc(O)c(O)c(O)c1)c1cc(O)c(O)c(O)c1 (stereo not shown) [3,4,5-trigalloylquinic acid]
effect of combination use with oxacillin (words): excellent; also recorded: most potent

— US20060235076A1, “Medicinal composition for treating infection with drug-resistant staphylococcus aureus” (priority 2003, published 2006)
